Here are results for four molecules from ChEMBL document CHEMBL5212743, “Selectivity Literature for EUbOPEN Chemogenomics Library wave 3” (2023).

Experiment [1] deals with T1, Gamma-aminobutyric acid receptor subunit alpha-1 (Homo sapiens, UniProt P14867).
T1 sequence (P14867 whole entry): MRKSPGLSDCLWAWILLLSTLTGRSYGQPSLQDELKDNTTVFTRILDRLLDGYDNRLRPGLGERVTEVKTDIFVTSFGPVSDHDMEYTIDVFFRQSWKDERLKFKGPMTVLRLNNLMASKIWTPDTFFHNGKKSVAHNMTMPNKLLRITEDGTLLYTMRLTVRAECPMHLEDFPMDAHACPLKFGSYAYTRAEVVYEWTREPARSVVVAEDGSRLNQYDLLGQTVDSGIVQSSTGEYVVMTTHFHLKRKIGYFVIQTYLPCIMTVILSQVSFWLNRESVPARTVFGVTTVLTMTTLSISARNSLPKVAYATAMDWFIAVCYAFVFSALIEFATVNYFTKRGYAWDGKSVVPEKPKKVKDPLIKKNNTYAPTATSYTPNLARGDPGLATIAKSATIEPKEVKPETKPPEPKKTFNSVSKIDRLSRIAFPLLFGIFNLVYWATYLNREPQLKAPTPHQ
The experiment is described as follows: Selectivity interaction (GPCR panel (PDSP screen)) EUB0000297b GABRA1.

Experiment [2] deals with Rho-associated protein kinase 1 (Homo sapiens) (UniProt Q13464). The experiment is described as follows: Selectivity interaction (KinomeScan (DiscoverX)) EUB0000297b ROCK1. Particulars: at 1 µM.
In experiment [3] the target is Dual specificity tyrosine-phosphorylation-regulated kinase 1B (Homo sapiens, UniProt Q9Y463). Briefly: Selectivity interaction (KinomeScan (DiscoverX)) EUB0000297b DYRK1B. Particulars: at 1 µM.
The target in experiment [4] is Dual specificity mitogen-activated protein kinase kinase 1 (Homo sapiens, UniProt Q02750). The experiment is described as follows: Selectivity interaction (Kinase panel (enzymatic assay)) EUB0000684a MAP2K1.
For experiment [5], the target named is Dual specificity mitogen-activated protein kinase kinase 2 (Homo sapiens, UniProt P36507). The experiment is described as follows: Selectivity interaction (Kinase panel (enzymatic assay)) EUB0000684a MAP2K2.
The target in experiment [6] is Inhibitor of nuclear factor kappa-B kinase subunit alpha (Homo sapiens, UniProt O15111). The experiment is described as follows: Selectivity interaction (Kinase panel (enzymatic assay)) EUB0000153b CHUK.
Experiment [7] has as its target Serine/threonine-protein kinase Sgk2 (Homo sapiens) (UniProt Q9HBY8). Briefly: Selectivity interaction (Kinase panel (Millipore)) EUB0000153b SGK2. Particulars: at 10 µM.
In experiment [8] the target is cAMP-dependent protein kinase catalytic subunit PRKX (Homo sapiens) (UniProt P51817). The experiment is described as follows: Selectivity interaction (Kinase panel (Millipore)) EUB0000153b PRKX. The conditions noted are these: at 10 µM.
Experiment [9] concerns the target Tyrosine-protein kinase SYK (Homo sapiens, UniProt P43405). Briefly: Selectivity interaction (Kinase panel (enzymatic assay)) EUB0000153b SYK.
Experiment [10] deals with NUAK family SNF1-like kinase 1 (Homo sapiens) (UniProt O60285). The experiment is described as follows: Selectivity interaction (Kinase panel (Millipore)) EUB0000153b NUAK1. Particulars: at 10 µM.
Experiment [11] has as its target Ribosomal protein S6 kinase alpha-6 (Homo sapiens) (UniProt Q9UK32). The experiment is described as follows: Selectivity interaction (Kinase panel (Millipore)) EUB0000153b RPS6KA6. The conditions noted are these: at 10 µM.
The target of experiment [12] is Rho-associated protein kinase 2 (Homo sapiens) (UniProt O75116). Briefly: Selectivity interaction (Kinase panel (Millipore)) EUB0000153b ROCK2. The conditions noted are these: at 10 µM.
The target of the next experiment is TGF-beta receptor type-1 (Homo sapiens, UniProt P36897). Briefly: Selectivity interaction (Kinase panel (enzymatic assay)) EUB0000153b TGFBR1.
The target in experiment [13] is Vascular endothelial growth factor receptor 2 (Homo sapiens, UniProt P35968). The experiment is described as follows: Selectivity interaction (Kinase panel (enzymatic assay)) EUB0000153b KDR.
The target in experiment [14] is T2, Serine/threonine-protein kinase Sgk1 (Homo sapiens) (UniProt O00141).
T2 sequence (whole entry): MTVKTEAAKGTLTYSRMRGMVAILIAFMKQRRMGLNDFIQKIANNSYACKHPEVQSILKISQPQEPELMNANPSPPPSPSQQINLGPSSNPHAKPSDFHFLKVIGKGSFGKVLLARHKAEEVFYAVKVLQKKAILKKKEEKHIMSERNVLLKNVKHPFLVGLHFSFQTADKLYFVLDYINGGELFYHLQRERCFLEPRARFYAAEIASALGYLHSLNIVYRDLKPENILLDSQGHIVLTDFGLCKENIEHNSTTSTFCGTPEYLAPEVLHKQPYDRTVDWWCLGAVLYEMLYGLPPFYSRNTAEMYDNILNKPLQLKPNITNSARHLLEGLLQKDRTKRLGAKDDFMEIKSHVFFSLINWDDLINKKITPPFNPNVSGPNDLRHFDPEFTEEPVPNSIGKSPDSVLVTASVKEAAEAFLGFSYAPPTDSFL
The experiment is described as follows: Selectivity interaction (Kinase panel (Millipore)) EUB0000153b SGK1. Particulars: at 10 µM.

The target in experiment [15] is RAC-alpha serine/threonine-protein kinase (Homo sapiens, UniProt P31749). The experiment is described as follows: Selectivity interaction (Kinase panel (enzymatic assay)) EUB0000153b AKT1.
For experiment [16], the target named is Phosphatidylinositol 4,5-bisphosphate 3-kinase catalytic subunit gamma isoform (Homo sapiens, UniProt P48736). The experiment is described as follows: Selectivity interaction (Kinase panel (enzymatic assay)) EUB0000153b PIK3CG.
Experiment [17] addresses Mitogen-activated protein kinase kinase kinase 5 (Homo sapiens, UniProt Q99683). The experiment is described as follows: Selectivity interaction (Kinase panel (enzymatic assay)) EUB0000153b MAP3K5.
The target in experiment [18] is Ribosomal protein S6 kinase alpha-2 (Homo sapiens) (UniProt Q15349). The experiment is described as follows: Selectivity interaction (Kinase panel (Millipore)) EUB0000153b RPS6KA2. Particulars: at 10 µM.
The target of experiment [19] is Glycogen synthase kinase-3 beta (Homo sapiens, UniProt P49841). Briefly: Selectivity interaction (Kinase panel (enzymatic assay)) EUB0000153b GSK3B.
Experiment [20] addresses Beta-3 adrenergic receptor (Homo sapiens, UniProt P13945). Briefly: Selectivity interaction (GPCR panel (PDSP screen)) EUB0001135a ADRB3. The conditions noted are these: at 10 µM.
Another experiment deals with Histamine H1 receptor (Homo sapiens, UniProt P35367). The experiment is described as follows: Selectivity interaction (GPCR panel (PDSP screen)) EUB0001135a HRH1. Particulars: at 10 µM.
Experiment [21] addresses T3, Death-associated protein kinase 3 (Homo sapiens, UniProt O43293). Briefly: Selectivity interaction (KinomeScan (DiscoverX, competition-binding assay)) EUB0001135a DAPK3.
Experiment [22] deals with T3, Death-associated protein kinase 3. The experiment is described as follows: Selectivity interaction (KinomeScan (DiscoverX)) EUB0001135a DAPK3. Particulars: at 1 µM.
For experiment [23], the target named is T4, G protein-coupled receptor kinase 3 (Homo sapiens) (UniProt P35626).
T4 sequence (whole entry): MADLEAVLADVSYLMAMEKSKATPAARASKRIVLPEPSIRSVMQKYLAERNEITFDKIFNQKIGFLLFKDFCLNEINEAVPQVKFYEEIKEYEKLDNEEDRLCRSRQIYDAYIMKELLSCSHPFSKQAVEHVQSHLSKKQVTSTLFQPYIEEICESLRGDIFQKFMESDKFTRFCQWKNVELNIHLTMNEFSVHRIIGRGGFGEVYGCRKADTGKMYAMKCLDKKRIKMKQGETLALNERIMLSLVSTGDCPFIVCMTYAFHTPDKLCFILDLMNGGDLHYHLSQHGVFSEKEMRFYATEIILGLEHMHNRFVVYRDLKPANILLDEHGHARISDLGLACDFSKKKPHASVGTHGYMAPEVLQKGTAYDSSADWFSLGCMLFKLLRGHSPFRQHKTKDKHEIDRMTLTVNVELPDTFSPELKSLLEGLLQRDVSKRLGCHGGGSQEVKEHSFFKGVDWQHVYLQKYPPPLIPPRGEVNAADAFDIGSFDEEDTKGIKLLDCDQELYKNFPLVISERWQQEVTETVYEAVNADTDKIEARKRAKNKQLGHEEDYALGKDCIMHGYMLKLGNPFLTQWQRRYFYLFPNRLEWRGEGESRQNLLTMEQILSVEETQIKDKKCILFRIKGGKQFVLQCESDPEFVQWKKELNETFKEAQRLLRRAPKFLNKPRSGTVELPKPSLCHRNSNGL
The experiment is described as follows: Selectivity interaction (KinomeScan (DiscoverX)) EUB0001135a ADRBK2. Particulars: at 1 µM.

In experiment [24] the target is G protein-coupled receptor kinase 3 (Homo sapiens, UniProt P35626). The experiment is described as follows: Selectivity interaction (KinomeScan (DiscoverX, competition-binding assay)) EUB0001135a ADRBK2.

Sequence of Ribosomal protein S6 kinase alpha-2 (Homo sapiens) (Q15349 whole entry, looked up): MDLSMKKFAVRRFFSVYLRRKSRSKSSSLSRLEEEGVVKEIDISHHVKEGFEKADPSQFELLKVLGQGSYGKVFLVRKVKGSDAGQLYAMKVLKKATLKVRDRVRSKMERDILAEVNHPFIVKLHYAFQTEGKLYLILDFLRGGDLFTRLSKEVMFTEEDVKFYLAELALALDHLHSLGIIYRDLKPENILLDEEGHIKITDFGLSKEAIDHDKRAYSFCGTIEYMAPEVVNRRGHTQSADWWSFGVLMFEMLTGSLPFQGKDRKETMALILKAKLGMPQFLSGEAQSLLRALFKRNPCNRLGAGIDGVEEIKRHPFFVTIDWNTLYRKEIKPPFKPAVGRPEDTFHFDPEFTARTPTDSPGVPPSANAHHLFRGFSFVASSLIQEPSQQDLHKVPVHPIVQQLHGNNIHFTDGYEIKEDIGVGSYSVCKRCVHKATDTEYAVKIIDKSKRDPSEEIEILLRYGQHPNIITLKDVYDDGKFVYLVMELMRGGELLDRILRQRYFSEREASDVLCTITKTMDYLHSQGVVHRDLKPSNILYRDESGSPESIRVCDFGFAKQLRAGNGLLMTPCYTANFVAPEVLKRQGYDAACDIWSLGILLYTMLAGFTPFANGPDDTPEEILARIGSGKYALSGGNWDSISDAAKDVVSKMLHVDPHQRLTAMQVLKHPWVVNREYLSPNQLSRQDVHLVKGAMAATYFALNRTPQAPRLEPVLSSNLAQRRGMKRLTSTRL
Sequence of Vascular endothelial growth factor receptor 2 (P35968 whole entry): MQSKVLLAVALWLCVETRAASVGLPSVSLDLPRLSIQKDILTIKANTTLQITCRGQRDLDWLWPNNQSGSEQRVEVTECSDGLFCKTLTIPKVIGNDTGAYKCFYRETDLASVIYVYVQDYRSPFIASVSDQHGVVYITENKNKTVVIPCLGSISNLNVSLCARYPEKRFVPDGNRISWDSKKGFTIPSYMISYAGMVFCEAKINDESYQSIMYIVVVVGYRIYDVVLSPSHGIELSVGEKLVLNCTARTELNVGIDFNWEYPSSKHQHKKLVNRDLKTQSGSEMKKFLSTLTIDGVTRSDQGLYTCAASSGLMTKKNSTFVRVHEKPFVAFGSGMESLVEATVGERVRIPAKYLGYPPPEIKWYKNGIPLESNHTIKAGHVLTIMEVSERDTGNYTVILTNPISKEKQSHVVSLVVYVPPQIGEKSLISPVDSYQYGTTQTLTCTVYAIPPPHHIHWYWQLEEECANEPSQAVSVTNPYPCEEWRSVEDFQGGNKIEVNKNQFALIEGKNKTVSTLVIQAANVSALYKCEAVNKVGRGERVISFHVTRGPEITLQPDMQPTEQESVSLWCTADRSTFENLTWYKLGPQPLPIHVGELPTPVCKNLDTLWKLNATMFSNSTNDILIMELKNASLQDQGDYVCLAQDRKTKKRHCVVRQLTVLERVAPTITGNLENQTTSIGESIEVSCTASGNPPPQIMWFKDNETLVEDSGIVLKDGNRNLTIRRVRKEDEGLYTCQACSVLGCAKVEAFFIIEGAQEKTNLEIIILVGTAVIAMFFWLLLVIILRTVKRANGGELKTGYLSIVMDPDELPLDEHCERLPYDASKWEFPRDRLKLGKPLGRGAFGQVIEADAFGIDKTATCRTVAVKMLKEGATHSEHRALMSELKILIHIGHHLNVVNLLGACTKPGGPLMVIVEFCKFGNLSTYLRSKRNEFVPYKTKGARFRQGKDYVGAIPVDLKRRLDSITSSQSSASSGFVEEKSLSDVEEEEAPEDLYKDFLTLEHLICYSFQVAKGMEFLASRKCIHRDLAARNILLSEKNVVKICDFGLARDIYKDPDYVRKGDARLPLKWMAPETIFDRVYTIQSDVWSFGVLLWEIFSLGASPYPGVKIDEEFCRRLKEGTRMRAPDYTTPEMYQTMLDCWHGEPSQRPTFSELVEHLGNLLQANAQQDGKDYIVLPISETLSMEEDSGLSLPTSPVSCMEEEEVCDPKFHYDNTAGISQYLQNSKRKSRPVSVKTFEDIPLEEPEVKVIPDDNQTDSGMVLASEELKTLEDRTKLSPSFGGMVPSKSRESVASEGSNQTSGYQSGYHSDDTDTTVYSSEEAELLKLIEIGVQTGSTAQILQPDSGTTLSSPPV
Sequence of Beta-3 adrenergic receptor (P13945 whole entry, looked up): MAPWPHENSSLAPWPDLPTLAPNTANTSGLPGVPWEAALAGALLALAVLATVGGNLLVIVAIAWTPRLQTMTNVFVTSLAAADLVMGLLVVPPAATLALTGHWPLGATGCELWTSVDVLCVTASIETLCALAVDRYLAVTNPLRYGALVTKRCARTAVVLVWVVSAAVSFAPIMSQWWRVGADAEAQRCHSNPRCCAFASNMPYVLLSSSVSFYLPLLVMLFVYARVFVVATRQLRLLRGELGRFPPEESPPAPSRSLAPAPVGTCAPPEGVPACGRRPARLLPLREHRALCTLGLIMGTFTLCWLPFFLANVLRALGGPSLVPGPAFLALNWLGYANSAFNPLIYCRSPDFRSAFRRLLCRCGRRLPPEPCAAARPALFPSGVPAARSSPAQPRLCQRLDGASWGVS
Sequence of Ribosomal protein S6 kinase alpha-6 (Homo sapiens) (Q9UK32 whole entry): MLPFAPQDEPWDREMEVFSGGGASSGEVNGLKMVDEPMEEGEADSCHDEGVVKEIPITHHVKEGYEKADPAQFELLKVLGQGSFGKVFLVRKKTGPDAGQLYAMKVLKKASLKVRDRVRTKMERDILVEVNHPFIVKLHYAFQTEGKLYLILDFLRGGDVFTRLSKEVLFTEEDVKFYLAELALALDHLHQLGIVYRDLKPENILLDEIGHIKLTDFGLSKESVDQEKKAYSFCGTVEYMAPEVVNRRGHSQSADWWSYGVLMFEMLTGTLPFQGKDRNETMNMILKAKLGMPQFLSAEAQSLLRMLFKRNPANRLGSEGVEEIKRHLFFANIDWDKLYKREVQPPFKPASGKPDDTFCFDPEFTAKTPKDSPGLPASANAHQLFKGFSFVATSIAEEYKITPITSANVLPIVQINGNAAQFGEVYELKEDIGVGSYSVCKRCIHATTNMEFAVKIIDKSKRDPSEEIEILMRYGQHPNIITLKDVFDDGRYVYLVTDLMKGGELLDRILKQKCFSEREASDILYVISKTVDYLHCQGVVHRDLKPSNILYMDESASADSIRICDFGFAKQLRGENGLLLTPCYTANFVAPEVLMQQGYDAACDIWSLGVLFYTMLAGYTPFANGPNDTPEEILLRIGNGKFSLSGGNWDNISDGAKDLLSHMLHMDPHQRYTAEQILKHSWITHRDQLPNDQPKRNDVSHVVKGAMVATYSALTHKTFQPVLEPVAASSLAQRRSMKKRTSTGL
Sequence of Dual specificity mitogen-activated protein kinase kinase 1 (Q02750 whole entry): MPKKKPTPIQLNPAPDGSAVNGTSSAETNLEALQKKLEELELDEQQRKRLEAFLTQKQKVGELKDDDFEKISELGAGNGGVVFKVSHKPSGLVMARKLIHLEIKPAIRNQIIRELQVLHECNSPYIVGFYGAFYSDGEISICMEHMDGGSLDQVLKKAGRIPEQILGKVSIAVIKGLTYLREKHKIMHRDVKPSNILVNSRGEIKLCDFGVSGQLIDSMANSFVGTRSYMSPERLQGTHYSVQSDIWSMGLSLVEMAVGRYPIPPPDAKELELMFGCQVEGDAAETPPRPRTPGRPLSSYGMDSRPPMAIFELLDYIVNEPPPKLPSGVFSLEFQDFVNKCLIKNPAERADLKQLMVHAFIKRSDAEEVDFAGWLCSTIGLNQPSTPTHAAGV
Sequence of Dual specificity tyrosine-phosphorylation-regulated kinase 1B (Q9Y463 whole entry, looked up): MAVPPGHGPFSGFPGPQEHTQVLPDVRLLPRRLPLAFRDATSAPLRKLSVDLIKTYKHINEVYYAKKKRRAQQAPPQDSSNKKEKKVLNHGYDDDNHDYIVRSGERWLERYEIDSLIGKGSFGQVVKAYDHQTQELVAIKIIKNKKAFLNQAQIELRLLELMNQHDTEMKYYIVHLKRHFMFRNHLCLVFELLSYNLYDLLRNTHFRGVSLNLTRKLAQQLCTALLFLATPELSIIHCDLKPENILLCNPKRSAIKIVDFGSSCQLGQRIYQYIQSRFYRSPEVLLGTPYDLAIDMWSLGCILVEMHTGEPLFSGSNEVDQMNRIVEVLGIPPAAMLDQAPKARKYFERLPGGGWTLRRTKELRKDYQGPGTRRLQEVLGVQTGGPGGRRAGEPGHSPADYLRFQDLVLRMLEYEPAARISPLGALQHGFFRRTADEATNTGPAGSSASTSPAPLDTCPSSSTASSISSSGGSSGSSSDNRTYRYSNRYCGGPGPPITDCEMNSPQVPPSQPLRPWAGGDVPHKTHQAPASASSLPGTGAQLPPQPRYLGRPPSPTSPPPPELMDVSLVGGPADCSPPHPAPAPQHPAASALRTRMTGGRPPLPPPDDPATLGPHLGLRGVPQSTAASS
Sequence of Inhibitor of nuclear factor kappa-B kinase subunit alpha (O15111 whole entry): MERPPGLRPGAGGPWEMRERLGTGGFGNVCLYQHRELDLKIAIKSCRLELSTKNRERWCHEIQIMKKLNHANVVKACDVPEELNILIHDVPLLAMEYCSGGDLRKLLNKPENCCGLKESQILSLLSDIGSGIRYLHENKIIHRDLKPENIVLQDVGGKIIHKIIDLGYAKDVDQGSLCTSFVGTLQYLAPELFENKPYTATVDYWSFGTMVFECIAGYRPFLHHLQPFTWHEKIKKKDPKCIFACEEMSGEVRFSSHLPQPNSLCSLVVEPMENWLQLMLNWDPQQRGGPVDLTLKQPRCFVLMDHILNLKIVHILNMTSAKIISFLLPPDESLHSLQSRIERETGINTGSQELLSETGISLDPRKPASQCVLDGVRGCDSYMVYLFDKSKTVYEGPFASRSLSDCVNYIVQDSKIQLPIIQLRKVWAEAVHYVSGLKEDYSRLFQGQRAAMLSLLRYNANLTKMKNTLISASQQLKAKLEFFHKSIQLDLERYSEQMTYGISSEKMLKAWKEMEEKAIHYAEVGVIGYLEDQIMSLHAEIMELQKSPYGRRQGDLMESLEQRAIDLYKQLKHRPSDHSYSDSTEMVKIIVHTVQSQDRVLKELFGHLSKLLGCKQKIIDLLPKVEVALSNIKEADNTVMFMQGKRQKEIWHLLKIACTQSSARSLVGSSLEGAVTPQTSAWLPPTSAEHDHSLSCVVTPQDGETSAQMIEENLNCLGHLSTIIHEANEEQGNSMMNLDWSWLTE

For orientation: Ki means a measure of affinity in units of concentration, obtained from inhibition or displacement. A low value points to tighter binding. Regarding `CN([C@@H]1CCc2c(CC(=O)O)c3ccccc3n2C1)S(=O)(=O)c1ccc(F)cc1` [MK-7246], the affinity in experiment [1], expressed as Ki, was 1.11 µM. For the same molecule, the results for the % of control in [2] and in experiment [3] were 34% and 44%, respectively.

In general, IC50 refers to the midpoint of a concentration-inhibition curve. A low value points to greater potency. For `O=C(c1ccc(F)c(F)c1Nc1ccc(I)cc1F)N1CC(O)([C@@H]2CCCCN2)C1` [COBIMETINIB], the IC50 was 0.031 µM in experiment [4] and 0.023 µM in experiment [5].

Turning to `CNc1nc(-c2ccc3c(N)n[nH]c3c2)cc(N2C[C@@H](C(=O)NC3CCCCC3)CC[C@H]2C)n1`, the IC50 (in [6]; in experiment [9]; at TGF-beta receptor type-1; in experiment [13]; in [15]; in [16]) was above 10 µM throughout. Further, the IC50 in [17] and in [19] was above 10 µM each time. The % of control in [7] turned out to be 0%; in [8], 4%; in experiment [10], 16%; in [11] it was 12%; in experiment [12] it was 17%; in experiment [14], 13%. The molecule also registered a % of control in [18] of 14%.

What is called Kd is a measure of binding affinity in units of concentration. A lower Kd goes with a tighter complex. On to `O=C1NC(c2ccccn2)Sc2ccccc21` (stereo unspecified) [BTZO-4], for which the values for the % of inhibition (in experiment [20]; at Histamine H1 receptor) were 32.4% and 49.9%, respectively. The Kd in [21] and in experiment [24] was above 10 µM throughout. For the same molecule, the % of control amounted to 0% in experiment [22] and 42% in experiment [23].
